In article PMC9570995, “Design, Synthesis, and Biological Evaluation of Novel Dihydropyridine and Pyridine Analogs as Potent Human Tissue Nonspecific Alkaline Phosphatase Inhibitors with Anticancer Activity: ROS and DNA Damage-Induced Apoptosis” (Molecules, 2022):

Assays:
[1] = test system: Cervical Cancer (HeLa) Cells; assay: MTT cell viability assay, HeLa; type: cell-based; conditions: Homo sapiens, HeLa
Source text: An MTT assay was used to determine the viability of the cells under examination in the desired medium. The mitochondrial dehydrogenase enzyme of the viable cells has a key role in the conversion of the yellow water-soluble substrate 3-(4,5-dimethylthiazol-2-y1)-2,5 diphenyl tetrazolium bromide (MTT) into a dark blue formazan product that is insoluble in water. The anticancer activity of the novel synthetic derivatives (4a–4k) was investigated through an MTT assay, with small modifications following the already published protocols against cancer cell lines (HeLa and MCF-7), using cisplatin as a reference drug. The cytotoxic effect of the tested compounds at 100 µM concentration was determined and represented as the percent growth inhibition compared with the untreated control cells. The first series comprised dihydropyridines analogous from 4a–4f with various substitution patterns on the phenyl ring. […] It is presumed that the 1-naphthyl containing compound 4c was locked in a configuration that is not favorable for an interaction with amino acid residues.
The anti-proliferative activity of the synthesized compounds was determined in MCF-7 and HeLa cells by an MTT cell viability assay, as described earlier. Briefly, we seeded 1 × 10^4 cells/well in a sterile 96-well culture microtiter plate and incubated them in a 5% CO2 incubator at 37 °C for 24 h. […] After 24 h, the cells were treated with 0.2 mg/mL of MTT reagent for 4 h. We added 10% acidified SDS (sodium dodecyl sulfate) solubilizing solution in propanol (1:1) to solubilize the formazan crystals. After 30 min at 37 °C, the plate was placed on a gyratory shaker to completely dissolve the formazan crystals. The plate was placed on a microplate reader to measure the optical density at 570 nm. The IC50 values were calculated from three independent experiments as previously reported.

Herring sperm DNA = assay: Fluorescence emission titration with DNA; type: binding; conditions: compound 10 µM, DMF/H2O (1:9, v/v)
Procedure: The fluorescence emission studies of compound 4d (10 µM) were accomplished in DMF/H2O (1:9, v/v) before and after the continual addition of DNA (0–50 µg/mL) to probe out the compound-DNA interaction. […] As evident in Figure 8, the fluorescence emission of compound 4d was attenuated by ~55% (calculated through I0/I) upon the maximum addition of 50 µg/mL of DNA. The substantial fluorescence quenching behavior of 4d upon the addition of DNA is perhaps attributed to the efficient binding of the compound to the minor groove of DNA [68]. […] Next, the excellent binding efficiency of compound 4d with DNA was well elucidated through the Stern–Volmer (SV) plot, which was produced between the increased fluorescence quenching efficiency and increasing concentration of DNA solution. […]
Reagent grade solvents were used for purification purposes. Silica gel with 70–230 mesh size and pure solvents were used for the column chromatography. ^1H, ^13C, and DEPT-135 NMR spectra were recorded on a 400 MHz spectrometer using DMSO as the solvent and TMS as the internal standard. The chemical shifts, multiplicity, and coupling constants were calculated from data obtained through the FID file. […] The IC50 and percent inhibition were calculated by using GraphPad software. […] The optical density was measured through a microplate reader at 570 nm. […]

IC50 ([1]; unit given, read-out: Cervical Cancer (HeLa) Cells IC50 Values ± SEM): 53.47 ± 0.5 µM
Structure (SMILES): N#CC1=C(N)N(Cc2ccccc2)C(N)=C(C#N)C1c1ccc2ccccc2c1 [Compound 4d, 2,6-Diamino-1-benzyl-4-(naphthalen-2-yl)-1,4-dihydropyridine-3,5-dicarbonitrile]
inhibition at 100 µM ([1]; 100 µM, 24 h): 82.7% | Stern–Volmer constant (Ksv) (Herring sperm DNA; DNA 0–50 µg/mL): 34100 M⁻¹ | attenuation of fluorescence emission (Herring sperm DNA; 50 µg/mL DNA, emission 410 nm): ~ 55%
